Assay results: ChEMBL document CHEMBL2424640, “Dihydrothiazolopyridone derivatives as a novel family of positive allosteric modulators of the metabotropic glutamate 5 (mGlu5) receptor” (J Med Chem, 2013)

Key:
[1] = target: Metabotropic glutamate receptor 5 (Homo sapiens, UniProt P41594)
Description: Positive allosteric modulation of human mGluR5a transfected in HEK293 cells by calcium mobilization assay

[2] = target: Metabotropic glutamate receptor 1 (Homo sapiens, UniProt Q13255)
Description: Positive allosteric modulation of human mGlu1 receptor expressed in HEK293 cells by fluorescent Ca2+ assay

[3] = target: Metabotropic glutamate receptor 3 (Homo sapiens, UniProt Q14832)
Description: Positive allosteric modulation of human mGlu3 receptor expressed in HEK293 cells by fluorescent Ca2+ assay

[4] = target: Metabotropic glutamate receptor 2 (Homo sapiens, UniProt Q14416)
Description: Positive allosteric modulation of human mGlu2 receptor expressed in HEK293 cells by fluorescent Ca2+ assay

[5] = target: Metabotropic glutamate receptor 8 (Homo sapiens, UniProt O00222)
Description: Positive allosteric modulation of human mGlu8 receptor expressed in HEK293 cells by fluorescent Ca2+ assay

[6] = target: Metabotropic glutamate receptor 6 (Rattus norvegicus, UniProt P35349)
Description: Positive allosteric modulation of rat mGlu6 receptor expressed in CHO cells by [35S]-GTPgammaS binding assay

[7] = target: Metabotropic glutamate receptor 7 (Homo sapiens, UniProt Q14831)
Description: Positive allosteric modulation of human mGlu7 receptor expressed in HEK293 cells by fluorescent Ca2+ assay

[8] = target: Metabotropic glutamate receptor 4 (Homo sapiens, UniProt Q14833)
Description: Positive allosteric modulation of human mGlu4 receptor expressed in HEK293 cells by fluorescent Ca2+ assay

Chain of Metabotropic glutamate receptor 8 (O00222 whole entry): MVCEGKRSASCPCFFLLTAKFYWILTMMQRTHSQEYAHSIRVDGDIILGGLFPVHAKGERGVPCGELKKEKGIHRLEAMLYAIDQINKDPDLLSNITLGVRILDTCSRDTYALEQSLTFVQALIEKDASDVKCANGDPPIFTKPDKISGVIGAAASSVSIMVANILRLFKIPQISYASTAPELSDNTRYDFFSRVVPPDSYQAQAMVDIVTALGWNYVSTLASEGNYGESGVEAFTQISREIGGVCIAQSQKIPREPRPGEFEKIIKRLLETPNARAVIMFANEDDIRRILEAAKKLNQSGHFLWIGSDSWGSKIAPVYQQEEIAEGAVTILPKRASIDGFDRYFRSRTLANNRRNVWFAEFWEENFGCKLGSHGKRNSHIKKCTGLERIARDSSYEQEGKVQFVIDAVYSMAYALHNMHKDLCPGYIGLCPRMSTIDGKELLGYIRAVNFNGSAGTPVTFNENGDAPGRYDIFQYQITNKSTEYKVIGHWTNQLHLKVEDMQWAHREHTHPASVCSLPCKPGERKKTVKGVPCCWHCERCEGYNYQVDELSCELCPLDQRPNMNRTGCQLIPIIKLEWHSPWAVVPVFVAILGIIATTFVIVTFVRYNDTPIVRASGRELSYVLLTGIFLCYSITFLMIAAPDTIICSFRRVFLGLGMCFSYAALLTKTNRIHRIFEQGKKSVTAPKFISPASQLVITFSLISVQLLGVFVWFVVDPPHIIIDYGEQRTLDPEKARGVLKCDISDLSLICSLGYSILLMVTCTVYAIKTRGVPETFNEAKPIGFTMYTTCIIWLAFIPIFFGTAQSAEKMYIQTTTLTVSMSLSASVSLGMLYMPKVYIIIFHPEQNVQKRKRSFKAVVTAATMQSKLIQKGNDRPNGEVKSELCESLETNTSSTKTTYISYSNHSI
Chain of Metabotropic glutamate receptor 7 (Q14831 whole entry): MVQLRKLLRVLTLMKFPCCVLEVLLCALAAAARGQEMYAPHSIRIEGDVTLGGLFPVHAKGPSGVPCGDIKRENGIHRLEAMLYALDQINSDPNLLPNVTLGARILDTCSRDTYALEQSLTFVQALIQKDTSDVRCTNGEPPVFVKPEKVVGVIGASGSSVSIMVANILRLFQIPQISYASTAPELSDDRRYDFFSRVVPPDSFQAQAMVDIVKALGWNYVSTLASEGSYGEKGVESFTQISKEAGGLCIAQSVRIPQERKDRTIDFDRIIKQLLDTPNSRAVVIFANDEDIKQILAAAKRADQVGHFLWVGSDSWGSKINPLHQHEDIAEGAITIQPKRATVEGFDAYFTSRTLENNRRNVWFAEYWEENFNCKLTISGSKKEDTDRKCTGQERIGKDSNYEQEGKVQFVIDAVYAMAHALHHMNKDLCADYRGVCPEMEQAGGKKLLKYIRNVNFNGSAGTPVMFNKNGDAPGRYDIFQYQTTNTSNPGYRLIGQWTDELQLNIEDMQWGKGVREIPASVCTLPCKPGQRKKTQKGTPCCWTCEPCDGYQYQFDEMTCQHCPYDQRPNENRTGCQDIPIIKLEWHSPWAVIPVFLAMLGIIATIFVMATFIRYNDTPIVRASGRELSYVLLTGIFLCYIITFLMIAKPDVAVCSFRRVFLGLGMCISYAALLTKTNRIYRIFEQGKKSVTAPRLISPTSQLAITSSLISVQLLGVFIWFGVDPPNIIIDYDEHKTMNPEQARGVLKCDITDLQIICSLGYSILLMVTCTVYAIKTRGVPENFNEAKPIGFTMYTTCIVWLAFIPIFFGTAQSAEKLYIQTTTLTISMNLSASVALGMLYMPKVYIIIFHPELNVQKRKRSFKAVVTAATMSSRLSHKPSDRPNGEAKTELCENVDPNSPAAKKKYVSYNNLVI
Chain of Metabotropic glutamate receptor 2 (Q14416 whole entry): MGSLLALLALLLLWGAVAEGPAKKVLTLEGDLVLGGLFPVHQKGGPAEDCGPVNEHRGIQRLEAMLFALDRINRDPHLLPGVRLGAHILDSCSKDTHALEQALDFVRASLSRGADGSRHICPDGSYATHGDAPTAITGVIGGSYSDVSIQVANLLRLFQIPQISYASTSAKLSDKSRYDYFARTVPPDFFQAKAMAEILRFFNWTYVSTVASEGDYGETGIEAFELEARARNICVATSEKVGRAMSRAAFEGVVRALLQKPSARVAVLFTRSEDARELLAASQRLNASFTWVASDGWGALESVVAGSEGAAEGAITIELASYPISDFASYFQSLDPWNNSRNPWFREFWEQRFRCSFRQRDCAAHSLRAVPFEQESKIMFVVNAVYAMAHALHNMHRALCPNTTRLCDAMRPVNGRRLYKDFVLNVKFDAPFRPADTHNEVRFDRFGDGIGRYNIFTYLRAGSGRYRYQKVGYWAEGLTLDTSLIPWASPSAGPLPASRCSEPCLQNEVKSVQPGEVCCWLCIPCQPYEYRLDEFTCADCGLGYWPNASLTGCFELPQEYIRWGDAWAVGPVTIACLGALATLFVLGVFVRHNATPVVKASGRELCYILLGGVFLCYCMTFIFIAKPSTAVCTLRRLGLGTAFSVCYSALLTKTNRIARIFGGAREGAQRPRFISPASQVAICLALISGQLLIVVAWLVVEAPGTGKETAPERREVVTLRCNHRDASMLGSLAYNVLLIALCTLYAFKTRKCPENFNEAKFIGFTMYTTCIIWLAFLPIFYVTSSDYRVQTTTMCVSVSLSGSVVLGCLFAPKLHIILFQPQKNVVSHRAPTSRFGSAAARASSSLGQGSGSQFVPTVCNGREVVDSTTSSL
Chain of Metabotropic glutamate receptor 1 (Q13255 whole entry): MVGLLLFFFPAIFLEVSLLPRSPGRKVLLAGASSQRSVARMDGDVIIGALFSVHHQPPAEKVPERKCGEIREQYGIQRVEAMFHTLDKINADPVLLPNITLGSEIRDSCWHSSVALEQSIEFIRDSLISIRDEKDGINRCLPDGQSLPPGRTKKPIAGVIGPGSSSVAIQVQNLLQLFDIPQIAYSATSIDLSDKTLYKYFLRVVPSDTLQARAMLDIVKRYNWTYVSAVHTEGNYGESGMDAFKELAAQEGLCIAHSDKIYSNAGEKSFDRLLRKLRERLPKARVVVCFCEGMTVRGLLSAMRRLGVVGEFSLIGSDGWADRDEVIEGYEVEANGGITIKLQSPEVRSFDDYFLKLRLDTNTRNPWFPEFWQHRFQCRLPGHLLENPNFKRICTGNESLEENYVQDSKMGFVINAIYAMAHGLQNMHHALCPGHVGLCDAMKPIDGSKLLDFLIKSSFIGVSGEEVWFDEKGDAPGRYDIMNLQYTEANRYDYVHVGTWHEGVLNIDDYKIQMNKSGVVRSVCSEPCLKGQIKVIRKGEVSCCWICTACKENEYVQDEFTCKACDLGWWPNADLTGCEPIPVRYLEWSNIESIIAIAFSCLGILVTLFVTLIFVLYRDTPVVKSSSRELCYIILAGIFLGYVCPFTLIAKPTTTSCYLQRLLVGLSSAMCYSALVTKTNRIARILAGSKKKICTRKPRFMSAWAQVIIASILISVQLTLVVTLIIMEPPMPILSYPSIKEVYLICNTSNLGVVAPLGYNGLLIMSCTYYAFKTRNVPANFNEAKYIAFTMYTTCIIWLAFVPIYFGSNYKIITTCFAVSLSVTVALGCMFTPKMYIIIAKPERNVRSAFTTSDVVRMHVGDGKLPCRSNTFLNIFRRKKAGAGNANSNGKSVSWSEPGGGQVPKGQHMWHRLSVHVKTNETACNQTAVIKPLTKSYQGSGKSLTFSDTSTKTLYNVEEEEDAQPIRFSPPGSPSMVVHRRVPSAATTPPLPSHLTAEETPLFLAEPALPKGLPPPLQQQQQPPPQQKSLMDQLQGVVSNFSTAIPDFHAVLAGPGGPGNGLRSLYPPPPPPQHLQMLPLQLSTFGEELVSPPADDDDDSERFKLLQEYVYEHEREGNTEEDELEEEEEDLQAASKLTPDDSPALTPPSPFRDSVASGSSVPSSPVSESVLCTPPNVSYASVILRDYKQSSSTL
Chain of Metabotropic glutamate receptor 6 (P35349 whole entry): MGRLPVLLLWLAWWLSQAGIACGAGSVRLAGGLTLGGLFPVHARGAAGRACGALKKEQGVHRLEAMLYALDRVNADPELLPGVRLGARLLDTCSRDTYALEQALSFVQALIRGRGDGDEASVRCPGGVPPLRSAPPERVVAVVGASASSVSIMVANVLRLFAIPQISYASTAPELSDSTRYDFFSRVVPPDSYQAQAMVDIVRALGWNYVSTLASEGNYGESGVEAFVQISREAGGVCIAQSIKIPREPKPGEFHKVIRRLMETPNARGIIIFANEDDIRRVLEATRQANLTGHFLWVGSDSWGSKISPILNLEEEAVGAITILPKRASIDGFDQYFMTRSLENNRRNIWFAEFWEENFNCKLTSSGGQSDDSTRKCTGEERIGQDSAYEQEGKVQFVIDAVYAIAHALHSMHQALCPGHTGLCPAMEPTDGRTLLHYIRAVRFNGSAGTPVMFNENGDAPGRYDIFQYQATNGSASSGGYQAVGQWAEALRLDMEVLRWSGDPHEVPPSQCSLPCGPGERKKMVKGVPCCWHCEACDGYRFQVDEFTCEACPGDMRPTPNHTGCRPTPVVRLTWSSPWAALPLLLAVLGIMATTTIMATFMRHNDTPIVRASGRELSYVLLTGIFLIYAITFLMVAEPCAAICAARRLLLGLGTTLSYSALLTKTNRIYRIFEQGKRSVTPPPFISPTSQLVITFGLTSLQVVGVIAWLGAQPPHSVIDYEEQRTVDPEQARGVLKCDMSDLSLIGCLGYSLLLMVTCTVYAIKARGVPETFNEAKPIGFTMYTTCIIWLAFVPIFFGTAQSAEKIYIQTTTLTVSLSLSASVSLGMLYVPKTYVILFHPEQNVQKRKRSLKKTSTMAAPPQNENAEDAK

Compound: O=C(O)c1ccccc1 [BENZOIC ACID]
- EC50 [1]: > 10000 nM

Compound: CC(C)N1CCc2nc(COc3ccccc3)sc2C1=O
- EC50 [1]: 1210 nM

Compound: COCCN1CCc2nc(C#Cc3ccccc3)sc2C1=O
- EC50 [1]: 119 nM

Compound: O=C1c2sc(COc3ccccc3)nc2CCN1CC1CCOCC1
- EC50 [1]: 851 nM

Compound: O=C1c2sc(COc3ccccc3)nc2CCN1c1ncccc1F
- EC50 [1]: 791 nM

Compound: O=C1c2sc(COc3ccc(F)cc3)nc2CCN1c1ccc(F)cc1
- EC50 [1]: 739 nM

Compound: O=C1CCc2cc(O)ccc2O1
- EC50 [1]: > 10000 nM

Compound: O=C1CCOc2cc(OCc3ccccc3)ccc21
- EC50 [2]: > 10000 nM
- EC50 [3]: > 10000 nM
- EC50 [4]: > 10000 nM
- EC50 [5]: > 10000 nM
- EC50 [6]: > 10000 nM
- EC50 [7]: > 10000 nM

Compound: O=C1c2sc(COc3ccccc3F)nc2CCN1c1ccc(F)cc1
- EC50 [1]: 553 nM

Compound: CN1CCc2nc(C#Cc3ccccc3)sc2C1=O
- EC50 [1]: 193 nM

Compound: COCCN1CCc2nc(COc3ccccc3)sc2C1=O
- EC50 [1]: 2310 nM

Compound: O=C1NCCc2nc(C#Cc3ccccc3)sc21
- EC50 [1]: 123 nM

Compound: O=C1c2sc(COc3ccccc3)nc2CCN1C1CC1
- EC50 [1]: 1460 nM

Compound: O=C1c2sc(COc3ccccc3)nc2CCN1c1ccc(F)cc1F
- EC50 [1]: 66 nM

Compound: O=C1c2sc(COc3ccccc3)nc2CCN1c1ccc(F)cc1
- EC50 [1]: 96 nM

Compound: O=C1c2sc(OCc3ccccc3)nc2CCN1c1ccc(F)cc1
- EC50 [1]: 1130 nM

Compound: CN1CCc2nc(OCc3ccccc3)sc2C1=O
- EC50 [1]: 1750 nM

Compound: O=C1c2sc(COc3ccccc3)nc2CCN1c1ccc(F)cn1
- EC50 [1]: 621 nM

Compound: O=C1CCOc2cc(COc3ccccc3)ccc21
- EC50 [2]: > 10000 nM
- EC50 [3]: > 10000 nM
- EC50 [4]: > 10000 nM
- EC50 [5]: > 10000 nM
- EC50 [6]: > 10000 nM
- EC50 [7]: > 10000 nM

Compound: O=C1c2sc(COc3ccccc3)nc2CCN1c1ccccn1
- EC50 [1]: 1020 nM

Compound: O=C1c2sc(COc3ccccc3)nc2CCN1c1cccnc1
- EC50 [1]: 1760 nM

Compound: O=C(c1ccc(F)cc1)N1CCC[C@H](c2nc(-c3ccc(F)cc3)no2)C1
- EC50 [1]: 199 nM

Compound: O=C1c2sc(COc3ccccc3)nc2CCN1CC1CC1
- EC50 [1]: 250 nM

Compound: O=C1CCCc2nc(C#Cc3ccccc3)sc21
- EC50 [2]: > 10000 nM
- EC50 [3]: > 10000 nM
- EC50 [4]: > 10000 nM
- EC50 [8]: > 10000 nM
- EC50 [5]: > 10000 nM
- EC50 [6]: > 10000 nM
- EC50 [7]: > 10000 nM
- EC50 [1]: 33 nM

Compound: O=C1c2sc(COc3cccc(F)c3)nc2CCN1c1ccc(F)cc1
- EC50 [1]: 77 nM
